Data published in patent US11230717B2, “Plants having increased tolerance to herbicides” (BASF SE, priority 2013, dated 2022).

System: transgenic Soy plants
Assay: Greenhouse testing of transgenic Soy plants (T2), herbicide spray test
Type: in vivo, Glycine max
Method: Transgenic plants expressing heterologous HPPD or HST enzymes are tested for tolerance against HPPD-inhibiting herbicides in greenhouse experiments.
For post emergence treatment, the test plants are first grown to a height of 3 to 15 cm, depending on the plant habit, and only then treated with the herbicides. For this purpose, the test plants are either sown directly and grown in the same containers, or they are first grown separately and transplanted into the test containers a few days prior to treatment. For testing of T0 plants, cuttings can be used. In the case of soybean plants, an optimal shoot for cutting is about 7.5 to 10 cm tall, with at least two nodes present. Each cutting is taken from the original transformant (mother plant) and dipped into rooting hormone powder (indole-3-butyric acid, IBA). The cutting is then placed in oasis wedges inside a bio-dome. Wild type cuttings are also taken simultaneously to serve as controls. The cuttings are kept in the bio-dome for 5-7 days and then transplanted to pots and then acclimated in the growth chamber for two more days. Subsequently, the cuttings are transferred to the greenhouse, acclimated for approximately 4 days, and then subjected to spray tests as indicated.
Depending on the species, the plants are kept at 10-25° C. or 20-35° C. The test period ex-tends over 3 weeks. During this time, the plants are tended and their response to the individual treatments is evaluated. Herbicide injury evaluations are taken at 2 and 3 weeks after treatment. Plant injury is rated on a scale of 0 to 9, 0 being no injury and 9 being complete death.
As depicted in Table 20, control plants were severely injured by all doses of herbicide applied, with 79% of leaf material being damaged at the highest application rate. […] Application of 31,25 g/ha active ingredient resulted only in 10-13% of leaf damage in two independent transgenic plant lines. Thus, in direct comparison with wild-type plants (injury value is 49%), a 4-fold increased tolerance could be observed after spraying with 31,25 g/ha. […]

## CSc1c(Cl)cc(F)c(C(=O)Nc2ncnn2C)c1Cl [Inhibitor 3, 2,4-dichloro-6-fluoro-3-methylsulfanyl-N-(2-methyl-1,2,4-triazol-3-yl)benzamide]
Soy Arabidopsis HPPD (SEQ ID: 53), 31,25 g/ha
  increased tolerance vs wild-type plants: 4 fold
Soy Arabidopsis HPPD, two independent transgenic plant lines, 31,25 g/ha
  leaf damage: 10-13%
Soy expressing Glycine max HPPD
  tolerance compared to nontransgenic control plants: more tolerant
